From PubChem BioAssay (NCI)
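Each compound was tested at five concentrations against cells in 96-well plates for 48 hours. TGI: total growth inhibition.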

Tests used:
Experiment in all cases: inhibition of tumour cell growth, NCI panel, 48 h
SNB-75 CNS = tested on: SNB-75 CNS
NCI-H522 lung = tested on: NCI-H522 lung
IGROV1 ovarian = tested on: IGROV1 ovarian
UACC-62 melanoma = tested on: UACC-62 melanoma
OVCAR-8 ovarian = tested on: OVCAR-8 ovarian
SN12C renal = tested on: SN12C renal
OVCAR-5 ovarian = tested on: OVCAR-5 ovarian
CCRF-CEM leukemia = tested on: CCRF-CEM leukemia
DLD-1 colon = tested on: DLD-1 colon
SK-MEL-28 melanoma = tested on: SK-MEL-28 melanoma
A549 NSCLC = tested on: A549 NSCLC
M14 melanoma = tested on: M14 melanoma
COLO 205 colon = tested on: COLO 205 colon
SF-295 CNS = tested on: SF-295 CNS
OVCAR-3 ovarian = tested on: OVCAR-3 ovarian
EKVX NSCLC = tested on: EKVX NSCLC
K-562 leukemia = tested on: K-562 leukemia
RPMI-8226 leukemia = tested on: RPMI-8226 leukemia
LOX IMVI melanoma = tested on: LOX IMVI melanoma
SK-MEL-5 melanoma = tested on: SK-MEL-5 melanoma
SW-620 colon = tested on: SW-620 colon
XF 498 CNS = tested on: XF 498 CNS
SF-268 CNS = tested on: SF-268 CNS
KM20L2 colon = tested on: KM20L2 colon
OVCAR-4 ovarian = tested on: OVCAR-4 ovarian
CAKI-1 renal = tested on: CAKI-1 renal
SK-OV-3 ovarian = tested on: SK-OV-3 ovarian
M19-MEL melanoma = tested on: M19-MEL melanoma
UACC-257 melanoma = tested on: UACC-257 melanoma
HT29 colon = tested on: HT29 colon
SK-MEL-2 melanoma = tested on: SK-MEL-2 melanoma
HCC-2998 colon = tested on: HCC-2998 colon
786-0 renal = tested on: 786-0 renal
ACHN renal = tested on: ACHN renal
HOP-92 NSCLC = tested on: HOP-92 NSCLC
NCI-H23 lung = tested on: NCI-H23 lung
TK-10 renal = tested on: TK-10 renal
MALME-3M melanoma = tested on: MALME-3M melanoma
NCI-H226 lung = tested on: NCI-H226 lung
RXF-631 renal = tested on: RXF-631 renal
SF-539 CNS = tested on: SF-539 CNS
HOP-62 NSCLC = tested on: HOP-62 NSCLC
SNB-19 CNS = tested on: SNB-19 CNS
RXF 393 renal = tested on: RXF 393 renal
DMS 114 small cell lung = tested on: DMS 114 small cell lung
HOP-18 NSCLC = tested on: HOP-18 NSCLC
KM12 colon = tested on: KM12 colon
HL-60(TB) leukemia = tested on: HL-60(TB) leukemia
NCI-H460 lung = tested on: NCI-H460 lung
MOLT-4 leukemia = tested on: MOLT-4 leukemia
U251 CNS = tested on: U251 CNS
UO-31 renal = tested on: UO-31 renal
A498 renal = tested on: A498 renal
HCT-15 colon = tested on: HCT-15 colon
DMS 273 small cell lung = tested on: DMS 273 small cell lung
HCT-116 colon = tested on: HCT-116 colon
LXFL 529 NSCLC = tested on: LXFL 529 NSCLC

With `CC1(C)C(=NNC(=S)NN)C(C)(C)C1=NNC(=S)NN` the TGI (SNB-75 CNS) was over 100 µM, the TGI (NCI-H522 lung) was over 100 µM and the TGI (IGROV1 ovarian) was over 100 µM. For the same compound, the TGI (UACC-62 melanoma) was over 100 µM, the TGI (OVCAR-8 ovarian) was over 100 µM and the TGI (SN12C renal) was over 100 µM. It also gave a TGI (OVCAR-5 ovarian) of over 100 µM, a TGI (CCRF-CEM leukemia) of over 100 µM and a TGI (DLD-1 colon) of over 100 µM. It also gave a TGI (SK-MEL-28 melanoma) of over 100 µM, a TGI (A549 NSCLC) of over 100 µM and a TGI (M14 melanoma) of over 100 µM. For the same compound, the TGI (COLO 205 colon) was over 100 µM, the TGI (SF-295 CNS) was over 100 µM and the TGI (OVCAR-3 ovarian) was over 100 µM. The TGI (EKVX NSCLC) was over 100 µM, the TGI (K-562 leukemia) was over 100 µM and the TGI (RPMI-8226 leukemia) was over 100 µM. It also gave a TGI (LOX IMVI melanoma) of over 100 µM, a TGI (SK-MEL-5 melanoma) of over 100 µM and a TGI (SW-620 colon) of over 100 µM. For the same compound, the TGI (XF 498 CNS) was over 100 µM, the TGI (SF-268 CNS) was over 100 µM and the TGI (KM20L2 colon) was over 100 µM. For the same compound, the TGI (OVCAR-4 ovarian) was over 100 µM, the TGI (CAKI-1 renal) was over 100 µM and the TGI (SK-OV-3 ovarian) was over 100 µM. It also gave a TGI (M19-MEL melanoma) of over 100 µM, a TGI (UACC-257 melanoma) of over 100 µM and a TGI (HT29 colon) of over 100 µM. The TGI (SK-MEL-2 melanoma) was over 100 µM, the TGI (HCC-2998 colon) was over 100 µM and the TGI (786-0 renal) was over 100 µM. The TGI (ACHN renal) was over 100 µM, the TGI (HOP-92 NSCLC) was over 100 µM and the TGI (NCI-H23 lung) was over 100 µM. For the same compound, the TGI (TK-10 renal) was over 100 µM, the TGI (MALME-3M melanoma) was over 100 µM and the TGI (NCI-H226 lung) was over 100 µM. The TGI (RXF-631 renal) was over 100 µM, the TGI (SF-539 CNS) was over 100 µM and the TGI (HOP-62 NSCLC) was over 100 µM. For the same compound, the TGI (SNB-19 CNS) was over 100 µM, the TGI (RXF 393 renal) was over 100 µM and the TGI (DMS 114 small cell lung) was over 100 µM.

`CC(=O)Nc1cccc2[nH]c3ccccc3c(=O)c12` showed a TGI (SNB-75 CNS) of 65.9 µM, a TGI (NCI-H522 lung) of 26.2 µM and a TGI (IGROV1 ovarian) of 70.3 µM. The TGI (HOP-18 NSCLC) was 38.6 µM, the TGI (UACC-62 melanoma) was 31.1 µM and the TGI (OVCAR-8 ovarian) was 45.1 µM. It also gave a TGI (SN12C renal) of over 100 µM, a TGI (OVCAR-5 ovarian) of 54.2 µM and a TGI (CCRF-CEM leukemia) of over 100 µM. The TGI (DLD-1 colon) was 53.6 µM, the TGI (SK-MEL-28 melanoma) was 92.3 µM and the TGI (KM12 colon) was 41.2 µM. It also gave a TGI (HL-60(TB) leukemia) of 39.8 µM, a TGI (A549 NSCLC) of 55.6 µM and a TGI (M14 melanoma) of over 100 µM. The TGI (COLO 205 colon) was 34 µM, the TGI (SF-295 CNS) was 51.1 µM and the TGI (OVCAR-3 ovarian) was 39.5 µM. For the same compound, the TGI (EKVX NSCLC) was 78.6 µM, the TGI (K-562 leukemia) was over 100 µM and the TGI (RPMI-8226 leukemia) was 43.8 µM. It also gave a TGI (SK-MEL-5 melanoma) of 30.4 µM, a TGI (SW-620 colon) of 58.3 µM and a TGI (XF 498 CNS) of 50.2 µM. For the same compound, the TGI (NCI-H460 lung) was 43.2 µM, the TGI (MOLT-4 leukemia) was over 100 µM and the TGI (SF-268 CNS) was 95.4 µM. For the same compound, the TGI (KM20L2 colon) was 83.3 µM, the TGI (OVCAR-4 ovarian) was 65.1 µM and the TGI (CAKI-1 renal) was 45.3 µM. It also gave a TGI (SK-OV-3 ovarian) of 67.4 µM, a TGI (M19-MEL melanoma) of 51.1 µM and a TGI (U251 CNS) of 75.5 µM. The TGI (UO-31 renal) was 32.7 µM, the TGI (UACC-257 melanoma) was 58.3 µM and the TGI (HT29 colon) was 40.9 µM. The TGI (SK-MEL-2 melanoma) was 38.7 µM, the TGI (786-0 renal) was 51.1 µM and the TGI (ACHN renal) was 52.3 µM. It also gave a TGI (A498 renal) of 29.6 µM, a TGI (HCT-15 colon) of 42.7 µM and a TGI (NCI-H23 lung) of 29.5 µM. The TGI (TK-10 renal) was 50.1 µM, the TGI (MALME-3M melanoma) was 50.1 µM and the TGI (DMS 273 small cell lung) was over 100 µM. For the same compound, the TGI (NCI-H226 lung) was 40.5 µM, the TGI (RXF-631 renal) was 94.8 µM and the TGI (SF-539 CNS) was 63.7 µM. It also gave a TGI (SNB-19 CNS) of 64.1 µM, a TGI (DMS 114 small cell lung) of 79.6 µM and a TGI (HCT-116 colon) of 28.6 µM.

For `CCCCCCCCNC(=O)SCCCC`, the TGI (SNB-75 CNS) was 68.8 µM, the TGI (NCI-H522 lung) was 76.7 µM and the TGI (IGROV1 ovarian) was over 100 µM. The TGI (HOP-18 NSCLC) was over 100 µM, the TGI (UACC-62 melanoma) was over 100 µM and the TGI (OVCAR-8 ovarian) was over 100 µM. It also gave a TGI (SN12C renal) of over 100 µM, a TGI (OVCAR-5 ovarian) of over 100 µM and a TGI (CCRF-CEM leukemia) of 69 µM. The TGI (DLD-1 colon) was over 100 µM, the TGI (SK-MEL-28 melanoma) was over 100 µM and the TGI (KM12 colon) was over 100 µM. For the same compound, the TGI (HL-60(TB) leukemia) was 43.7 µM, the TGI (A549 NSCLC) was over 100 µM and the TGI (M14 melanoma) was over 100 µM. It also gave a TGI (COLO 205 colon) of over 100 µM, a TGI (SF-295 CNS) of over 100 µM and a TGI (OVCAR-3 ovarian) of over 100 µM. The TGI (EKVX NSCLC) was 80.1 µM, the TGI (K-562 leukemia) was over 100 µM and the TGI (RPMI-8226 leukemia) was 58.7 µM. For the same compound, the TGI (LOX IMVI melanoma) was 39.2 µM, the TGI (SK-MEL-5 melanoma) was 44.4 µM and the TGI (SW-620 colon) was over 100 µM. It also gave a TGI (XF 498 CNS) of 37.5 µM, a TGI (NCI-H460 lung) of 82.2 µM and a TGI (MOLT-4 leukemia) of 84.9 µM. It also gave a TGI (SF-268 CNS) of over 100 µM, a TGI (KM20L2 colon) of over 100 µM and a TGI (OVCAR-4 ovarian) of over 100 µM. For the same compound, the TGI (CAKI-1 renal) was 61.9 µM, the TGI (SK-OV-3 ovarian) was over 100 µM and the TGI (M19-MEL melanoma) was over 100 µM. It also gave a TGI (U251 CNS) of over 100 µM, a TGI (UO-31 renal) of 65.1 µM and a TGI (HT29 colon) of 59.4 µM. It also gave a TGI (LXFL 529 NSCLC) of over 100 µM, a TGI (SK-MEL-2 melanoma) of 56.2 µM and a TGI (786-0 renal) of over 100 µM. The TGI (ACHN renal) was over 100 µM, the TGI (A498 renal) was over 100 µM and the TGI (HCT-15 colon) was over 100 µM. It also gave a TGI (HOP-92 NSCLC) of 49 µM, a TGI (NCI-H23 lung) of over 100 µM and a TGI (TK-10 renal) of over 100 µM. It also gave a TGI (MALME-3M melanoma) of 63.1 µM, a TGI (DMS 273 small cell lung) of over 100 µM and a TGI (RXF-631 renal) of over 100 µM. It also gave a TGI (SF-539 CNS) of over 100 µM, a TGI (SNB-19 CNS) of 87.9 µM and a TGI (RXF 393 renal) of 68 µM.
